Source: patent publication US6841684B2, “Imidiazoles having reduced side effects” (Allergan, Inc., priority 1997, dated 2005)
Marks after values point to notes of the source that are not given here.

Experiments:
[1] = tested on: cynomolgus monkeys with sustained elevated IOP; assay: IOP lowering in conscious monkeys, eyes made hypertensive by argon laser photocoagulation; assay type: in vivo, cynomolgus monkey; conditions: Macaca fascicularis, topical, 6 h, single 50 μl eye drop, up to 6 hours, read-out: Maximum % Decrease From Pretreatment Levels Hypertensive Eye (IOP); for inhibition in vivo at 0.3 %: ocular dose 0.3%; for inhibition in vivo at 1 %: ocular dose 1%
Text: Measurements of IOP were made in fully conscious female cynomolgus monkeys weighing 3-4 kg with sustained elevated IOP that was produced in the right eye by argon laser photocoagulation of the trabecular meshwork. Animals were usable for experiments 2 months following surgery. During the experiments, monkeys sat in specially designed chairs (Primate Products, San Francisco), and were fed orange juice and fruit as needed. A 30R model Digilab pneumatonometer (Alcon, Tex.) was used to measure IOP.
Twenty five μl of an anesthetic (proparacaine) was topically applied to each monkey before IOP measurements to minimize ocular discomfort due to tonometry. Two baseline measurements were made prior to instillation of the drugs, followed by periodic measurements up to 6 hours post-instillation. The test compounds were administered unilaterally as a single 50 μl eye drop; the contralateral eyes received an equal volume of saline.

[2] = tested on: conscious cynomolgus monkeys; assay: Cardiovascular side effects (blood pressure, heart rate) after i.v. administration; assay type: in vivo, cynomolgus monkey; conditions: up to 6 hours, + with * = increase from base levels
Text: Cardiovascular measurements were made in a different group of monkeys using a BP 100S automated sphygmomanometer (Nippon Colin,. Japan).

[3] = tested on: conscious cynomolgus monkeys; assay: Sedation score during the IOP experiments; assay type: in vivo, cynomolgus monkey; parameters: key to Sedation (0-4): 0=alert, typical vocalization, movement, etc.; 1=calm, less movement; 2=slightly sedated, some vocalization, responsive to stimulation; 3=sedated, no vocalization, some response to stimulation; 4=asleep
Procedure: At the same time, sedation was measured and assessed according to the following score: 0=alert, typical vocalization, movement, etc.; 1=calm, less movement; 2=slightly sedated, some vocalization, responsive to stimulation; 3=sedated, no vocalization, some response to stimulation; 4=asleep.

[4] = target: T1, rat α2B (RNG gene) receptor (Rattus norvegicus, UniProt P19328); assay: RSAT (Receptor Selection and Amplification Technology) assay, alpha 2B; assay type: cell-based; conditions: ratio of maximal effect to that of standard full agonist oxymetazoline
T1 construct: expressed in transfected cells; host or cells: NIH-3T3 cells, calcium phosphate cotransfection
T1 sequence (P19328 1-453): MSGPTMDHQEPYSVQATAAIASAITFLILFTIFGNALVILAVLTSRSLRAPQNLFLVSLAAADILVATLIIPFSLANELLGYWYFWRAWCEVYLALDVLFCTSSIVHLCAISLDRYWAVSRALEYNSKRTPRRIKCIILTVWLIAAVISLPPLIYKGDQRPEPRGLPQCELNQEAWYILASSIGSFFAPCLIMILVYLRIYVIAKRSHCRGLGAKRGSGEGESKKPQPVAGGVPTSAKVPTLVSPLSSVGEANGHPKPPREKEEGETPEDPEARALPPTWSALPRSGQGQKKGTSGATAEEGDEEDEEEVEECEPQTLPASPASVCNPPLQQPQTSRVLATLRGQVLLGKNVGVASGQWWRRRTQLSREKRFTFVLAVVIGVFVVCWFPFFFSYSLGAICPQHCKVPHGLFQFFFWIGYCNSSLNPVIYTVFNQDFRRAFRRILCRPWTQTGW
In short: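 NIH-3T3 cells transiently cotransfected with receptor, hybrid Gq/i5 protein and β-galactosidase marker were incubated with compound dilutions in triplicate for 72-96 hr at 37°. Proliferation was read as β-galactosidase activity (o-nitrophenyl-β-D-galactopyranoside, overnight at 30°, OD 420 nm). EC50 and efficacy were derived, the latter relative to a standard full agonist's maximal effect.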

rats = assay: Sedative activity measured using an activity chamber; assay type: in vivo, rat; conditions: for Sedation (%): 30 minutes after dosing; for sedation (in words): intrathecal or intraperitoneal, rats
Text: (§1) Alleviation of pain including neuropathic pain is another example of a disorder in which the compounds of the invention are useful and advantageous since pain is alleviated without undesirable side effects. […] (See, for example, Kim, S. and Chung, J. “An experimental model for peripheral neuropathy produced by segmental spinal nerve ligation in the rat.” Pain 50 pp. 355-363 (1992).) Following ligation of two spinal nerves, the animals develop a sensitivity to normally non-painful stimuli such as touch. The ability of alpha2 compounds to reverse this sensitivity, called allodynia, was tested 30 minutes after dosing by either intrathecal or intraperitoneal administration. The sedative activity of each compound was also measured using an activity chamber.

[5] = tested on: rats with ligation of two spinal nerves; assay: Spinal nerve ligation model of neuropathic pain, reversal of tactile allodynia; assay type: in vivo, rat; conditions: for Reversal of Tactile Allodynia (%): 30 minutes after dosing
Text: as §1

Compound	Intrinsic Activity Relative to Oxymetazoline, Alpha 2B [4]	inhibition in vivo at 0.3 % [1] [%]	inhibition in vivo at 1 % [1] [%]	Maximum % Decrease From Pretreatment Levels, Heart Rate ([2]; i.v. 17 μg/kg) [%]	Maximum % Decrease From Pretreatment Levels, Mean Arterial Blood Pressure ([2]; i.v. 17 μg/kg) [%]	Maximum % Decrease From Pretreatment Levels, Heart Rate ([2]; i.v. 50 μg/kg) [%]	Maximum % Decrease From Pretreatment Levels, Mean Arterial Blood Pressure ([2]; i.v. 50 μg/kg) [%]	Maximum % Decrease From Pretreatment Levels, Heart Rate ([2]; i.v. 167 μg/kg) [%]	Maximum % Decrease From Pretreatment Levels, Mean Arterial Blood Pressure ([2]; i.v. 167 μg/kg) [%]	Sedation (0-4) ([3]; ocular dose 0.3%)	Sedation (0-4) ([3]; ocular dose 1%)	Maximum % Decrease From Pretreatment Levels, Heart Rate ([2]; i.v. 500 μg/kg) [%]	Maximum % Decrease From Pretreatment Levels, Mean Arterial Blood Pressure ([2]; i.v. 500 μg/kg)	sedation (in words) (rats)	Reversal of Tactile Allodynia (%) ([5]; intraperitoneal 3 mg/kg)	Reversal of Tactile Allodynia (%) ([5]; intraperitoneal 30 mg/kg)	further results
CN1CCOc2ccc(N=C3NCCN3)cc21 [Example E-1, imidazolidin-2-ylidene-(4-methyl-3,4-dihydro-2H-benzo[1,4]oxazin-6-yl) amine]	0.83	25 ± 4	27 ± 3	11 ± 4	7 ± 4	14 ± 5	7 ± 2	11 ± 5	9 ± 4	0	0	–	–	–	–	–	–
c1ccc2c(c1)CC[C@H](Cc1c[nH]cn1)C2 [Example J-2, (S)-4(5)-(1,2,3,4-tetrahydronaphthalen-2-ylmethyl)-1H-imidazole]	0.8	–	–	–	–	–	–	–	–	0	–	6.4 ± 3.3	+0.6 ± 3.1* %	–	–	–	inhibition in vivo at 0.03 % ([1]; ocular dose 0.03%): 12.4 ± 3.7%; Sedation (0-4) ([3]; ocular dose 0.03%): 0
Cc1[nH]cnc1Cc1ccc2c(c1)OCCO2 [M, 4-(2,3-dihydrobenzo[1,4]dioxin-6-ylmethyl)-5-methyl-1H-imidazole]	0.97	–	22.5 ± 5.4	–	–	–	–	–	–	–	0	5.5 ± 1.9	0.8 ± 2.3%	–	–	–	–
Brc1c(NC2=NCCN2)ccc2nccnc12 [brimonidine, reference compound]	–	40 ± 4	–	52 ± 3	36 ± 3	54 ± 3	37 ± 5	–	–	2	–	–	–	cause sedation at doses only slightly higher than their anti-allodynic doses	0	37* %	Sedation (%) (rats; intraperitoneal 30 mg/kg): 24%; Sedation (%) (rats; intraperitoneal 300 mg/kg): 67* %; inhibition in vivo at 0.1 % ([1]; ocular dose 0.1%): 25 ± 3%; sedation (in words) ([3]; ocular administration, monkeys): caused sedation; Sedation (0-4) ([3]; ocular dose 0.1%): 1

The next lines start with results.

Intrinsic Activity Relative to Oxymetazoline, Alpha 2B [4]	Compound	inhibition in vivo at 0.3 % [1] [%]	inhibition in vivo at 1 % [1] [%]	Maximum % Decrease From Pretreatment Levels, Heart Rate ([2]; i.v. 17 μg/kg) [%]	Maximum % Decrease From Pretreatment Levels, Mean Arterial Blood Pressure ([2]; i.v. 17 μg/kg) [%]	Maximum % Decrease From Pretreatment Levels, Heart Rate ([2]; i.v. 50 μg/kg) [%]	Maximum % Decrease From Pretreatment Levels, Mean Arterial Blood Pressure ([2]; i.v. 50 μg/kg) [%]	Maximum % Decrease From Pretreatment Levels, Heart Rate ([2]; i.v. 167 μg/kg) [%]	Maximum % Decrease From Pretreatment Levels, Mean Arterial Blood Pressure ([2]; i.v. 167 μg/kg) [%]	Sedation (0-4) ([3]; ocular dose 0.3%)	Sedation (0-4) ([3]; ocular dose 1%)	Maximum % Decrease From Pretreatment Levels, Heart Rate ([2]; i.v. 500 μg/kg) [%]	Maximum % Decrease From Pretreatment Levels, Mean Arterial Blood Pressure ([2]; i.v. 500 μg/kg)	sedation (in words) (rats)	Reversal of Tactile Allodynia (%) ([5]; intraperitoneal 3 mg/kg)	Reversal of Tactile Allodynia (%) ([5]; intraperitoneal 30 mg/kg)	further results
0.83	c1nc(CC2CCCCC2)c[nH]1 [Example J-1, 4(5)-cyclohexylmethyl-1H-imidazole]	–	26 ± 5	13 ± 4	7 ± 5.3	6 ± 2	4 ± 2	3 ± 3	7 ± 5	–	0	7 ± 4	13 ± 3%	–	–	–	inhibition in vivo at 3 % ([1]; ocular dose 3%): 33 ± 3%; Sedation (0-4) ([3]; ocular dose 3%): 0
0.75	Cl.O=C1C2=C(CCCC2)CCC1Cc1c[nH]cn1 (centres unmarked) [Example N-1, 2-(1H-imidazol-4(5)-ylmethyl)-3,4,5,6,7,8-hexahydro-2H-naphthalen-1-one, hydrochloride salt]	–	–	–	–	–	–	–	–	–	–	–	–	without causing sedation, even at very high doses	3	41* %	Sedation (%) (rats; intraperitoneal 10,000 mg/kg): 0%; Sedation (%) (rats; intrathecal 30 μg): 0%; Sedation (%) (rats; intrathecal 300 μg): 0%; Reversal of Tactile Allodynia (%) ([5]; intrathecal 3 μg): 13%; Reversal of Tactile Allodynia (%) ([5]; intrathecal 30 μg): 64* %; alleviation of allodynia (in words) ([5]; intrathecal or intraperitoneal, rats): able to alleviate the allodynia
